Data on one compound can be found in paper PMC8497156, “Complexed Crystal Structure of Saccharomyces cerevisiae Dihydroorotase with Inhibitor 5-Fluoroorotate Reveals a New Binding Mode” (Bioinorganic Chemistry and Applications, 2021).

What all share (format): binding
Test [1] addresses T1, dihydroorotase (ScDHOase-R18A) (Saccharomyces cerevisiae, UniProt P20051, R18A).
T1 construct: gene URA4
In words: intrinsic fluorescence quenching titration.

Test [2] addresses T2, dihydroorotase (ScDHOase-T106A) (Saccharomyces cerevisiae, UniProt P20051, T106A).
T2 construct: gene URA4
In words: intrinsic fluorescence quenching titration.

The target of test [3] is T3, dihydroorotase (ScDHOase) (Saccharomyces cerevisiae, UniProt P20051).
T3 construct: gene URA4
T3 sequence (P20051 1-364): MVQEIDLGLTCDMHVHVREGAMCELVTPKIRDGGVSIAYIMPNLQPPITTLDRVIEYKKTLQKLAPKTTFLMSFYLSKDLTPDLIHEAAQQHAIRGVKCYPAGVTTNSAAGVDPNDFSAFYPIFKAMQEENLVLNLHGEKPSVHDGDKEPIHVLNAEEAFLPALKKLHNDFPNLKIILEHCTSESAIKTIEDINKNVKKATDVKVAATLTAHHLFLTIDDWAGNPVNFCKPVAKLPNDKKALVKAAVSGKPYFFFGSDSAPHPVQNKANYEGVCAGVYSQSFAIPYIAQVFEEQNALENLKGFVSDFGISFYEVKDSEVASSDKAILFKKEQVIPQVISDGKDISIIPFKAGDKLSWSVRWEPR
In words: Kd by intrinsic fluorescence quenching.

Molecules are shown by their SMILES.

T2 sequence (P20051 whole entry T106A): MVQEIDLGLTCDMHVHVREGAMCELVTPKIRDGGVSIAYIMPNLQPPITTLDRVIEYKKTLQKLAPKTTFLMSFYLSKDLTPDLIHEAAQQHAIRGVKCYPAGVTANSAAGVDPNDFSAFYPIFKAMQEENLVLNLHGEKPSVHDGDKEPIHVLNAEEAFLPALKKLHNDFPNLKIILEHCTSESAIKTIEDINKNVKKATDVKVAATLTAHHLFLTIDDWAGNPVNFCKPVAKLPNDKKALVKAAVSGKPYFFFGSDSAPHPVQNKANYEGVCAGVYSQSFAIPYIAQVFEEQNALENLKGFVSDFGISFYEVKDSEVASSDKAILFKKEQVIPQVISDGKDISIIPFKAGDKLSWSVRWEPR
T1 sequence (P20051 whole entry R18A): as the sequence (P20051 whole entry T106A) above, with R18A, A106T counted along it

As for `O=C(O)c1[nH]c(=O)[nH]c(=O)c1F` [5-FOA, 5-fluoroorotate], the Kd in test [1] amounted to 144 ± 2.1 µM; in test [2] it was 115 ± 3.7 µM; in test [3] it was 83.8 ± 1.5 µM.

In general, Kd refers to the equilibrium constant for the complex coming apart. The low end stands for tighter binding, the high end for weaker binding.
